# Measurements from patent US11701372B2, “Inhalation formulations of 1'-cyano substituted carba-nucleoside analogs” (priority 2020, dated 2023).
# Read-outs that look alike come from different tables or passages of the source.
# Legend:
# [1] = type: physicochemical; conditions: for % assay/degs: T = 0
# Method: For each condition, samples were staged at ambient and refrigerated conditions. Samples were analyzed for % assay/degs, appearance, reconstitution time, pH, and compared to T=0. The structures of the key impurities/metabolites are shown below.
# [2] = In use testing of reconstituted solutions in IV bags and IV tubings; type: physicochemical
# From the text: The IV bags and IV tubings were sampled over time and tested for % assay/degradation.
# [3] = PK following IV administration of Formula Ia in African Green Monkeys; design: species or system African Green Monkeys; conditions: monkey, in vivo; 10 mg/kg IV AGM; read-out: AUC0-t
# [4] = in vivo; conditions: both, monkey, inhaled or intranasal
# Method: (§1) The average deposited dose was calculated at 0.168 mg/kg and 0.536 mg/kg, respectively. Plasma, peripheral blood mononuclear cells (PBMCs), trachea, bronchi, lung lobe, liver, kidney, nasal mucosa and nasopharyngeal mucosa samples were collected in this study.
# [5] = in vivo; conditions: both, monkey, 0.168 mg/kg
# Method: as §1
# [6] = Respiratory tissue concentrations after inhalation in African Green Monkeys; conditions: 24 hours
# Method: as §1
smiles,measurement,setting,value
N#C[C@@]1(c2ccc3c(N)ncnn23)O[C@H](CO)[C@@H](O)[C@H]1O [Compound A],"% assay/degs, difference from T = 0","[1]; pH 1.8, 2-8° C., 2 h",0.00%
same,"% assay/degs, difference from T = 0","[1]; pH 1.8, 2-8° C., 3 h",0.00%
same,"% assay/degs, difference from T = 0","[1]; pH 1.8, 2-8° C., 8 h",0.00%
same,"% assay/degs, difference from T = 0","[1]; pH 1.8, 2-8° C., 24 h",0.01%
same,"% assay/degs, difference from T = 0","[1]; pH 1.8, 2-8° C., 48 h",0.02%
same,"% assay/degs, difference from T = 0","[1]; pH 1.8, Ambient, 1 h",0.00%
same,"% assay/degs, difference from T = 0","[1]; pH 1.8, Ambient, 2 h",0.00%
same,"% assay/degs, difference from T = 0","[1]; pH 1.8, Ambient, 3 h",0.01%
same,"% assay/degs, difference from T = 0","[1]; pH 1.8, Ambient, 8 h",0.01%
same,"% assay/degs, difference from T = 0","[1]; pH 1.8, Ambient, 24 h",0.05%
same,"% assay/degs, difference from T = 0","[1]; pH 1.8, Ambient, 48 h",0.09%
same,% assay/degs,[1]; pH 1.8,0.02%
same,"% assay/degs, difference from T = 0","[1]; pH 2.0, 2-8° C., 2 h",0.00%
same,"% assay/degs, difference from T = 0","[1]; pH 2.0, 2-8° C., 3 h",0.00%
same,"% assay/degs, difference from T = 0","[1]; pH 2.0, 2-8° C., 8 h",0.00%
same,"% assay/degs, difference from T = 0","[1]; pH 2.0, 2-8° C., 24 h",0.00%
same,"% assay/degs, difference from T = 0","[1]; pH 2.0, 2-8° C., 48 h",0.01%
same,"% assay/degs, difference from T = 0","[1]; pH 2.0, Ambient, 1 h",0.00%
same,"% assay/degs, difference from T = 0","[1]; pH 2.0, Ambient, 2 h",0.00%
same,"% assay/degs, difference from T = 0","[1]; pH 2.0, Ambient, 3 h",0.00%
same,"% assay/degs, difference from T = 0","[1]; pH 2.0, Ambient, 8 h",0.01%
same,"% assay/degs, difference from T = 0","[1]; pH 2.0, Ambient, 24 h",0.03%
same,"% assay/degs, difference from T = 0","[1]; pH 2.0, Ambient, 48 h",0.06%
same,% assay/degs,[1]; pH 2.0,0.02%
same,"% assay/degs, difference from T = 0","[1]; pH 3.5, 2-8° C., 2 h",0.00%
same,"% assay/degs, difference from T = 0","[1]; pH 3.5, 2-8° C., 8 h",0.00%
same,"% assay/degs, difference from T = 0","[1]; pH 3.5, 2-8° C., 24 h",0.00%
same,"% assay/degs, difference from T = 0","[1]; pH 3.5, 2-8° C., 48 h",0.00%
same,"% assay/degs, difference from T = 0","[1]; pH 3.5, 2-8° C., 72 h",0.00%
same,"% assay/degs, difference from T = 0","[1]; pH 3.5, 2-8° C., 96 h",0.00%
same,"% assay/degs, difference from T = 0","[1]; pH 3.5, 2-8° C., 168 h",0.00%
same,"% assay/degs, difference from T = 0","[1]; pH 3.5, Ambient, 2 h",0.00%
same,"% assay/degs, difference from T = 0","[1]; pH 3.5, Ambient, 8 h",0.00%
same,"% assay/degs, difference from T = 0","[1]; pH 3.5, Ambient, 24 h",0.00%
same,"% assay/degs, difference from T = 0","[1]; pH 3.5, Ambient, 48 h",0.00%
same,"% assay/degs, difference from T = 0","[1]; pH 3.5, Ambient, 72 h",0.00%
same,"% assay/degs, difference from T = 0","[1]; pH 3.5, Ambient, 96 h",0.01%
same,"% assay/degs, difference from T = 0","[1]; pH 3.5, Ambient, 168 h",0.01%
same,% assay/degs,[1]; pH 3.5,0.02%
same,"% assay/degs, difference from T = 0","[1]; pH 3.8, 2-8° C., 7.2 h",0.00%
same,"% assay/degs, difference from T = 0","[1]; pH 3.8, 2-8° C., 24 h",0.00%
same,"% assay/degs, difference from T = 0","[1]; pH 3.8, 2-8° C., 96 h",0.00%
same,"% assay/degs, difference from T = 0","[1]; pH 3.8, 2-8° C., 168 h",0.00%
same,"% assay/degs, difference from T = 0","[1]; pH 3.8, Ambient, 7.2 h",0.00%
same,"% assay/degs, difference from T = 0","[1]; pH 3.8, Ambient, 24 h",0.00%
same,"% assay/degs, difference from T = 0","[1]; pH 3.8, Ambient, 96 h",0.00%
same,"% assay/degs, difference from T = 0","[1]; pH 3.8, Ambient, 168 h",0.00%
same,% assay/degs,[1]; pH 3.8,0.02%
same,"% assay/degs, difference from T = 0","[1]; pH 4.0, 2-8° C., 7.2 h",0.00%
same,"% assay/degs, difference from T = 0","[1]; pH 4.0, 2-8° C., 24 h",0.00%
same,"% assay/degs, difference from T = 0","[1]; pH 4.0, 2-8° C., 96 h",0.00%
same,"% assay/degs, difference from T = 0","[1]; pH 4.0, 2-8° C., 168 h",0.00%
same,"% assay/degs, difference from T = 0","[1]; pH 4.0, Ambient, 7.2 h",0.00%
same,"% assay/degs, difference from T = 0","[1]; pH 4.0, Ambient, 24 h",0.00%
same,"% assay/degs, difference from T = 0","[1]; pH 4.0, Ambient, 96 h",0.00%
same,"% assay/degs, difference from T = 0","[1]; pH 4.0, Ambient, 168 h",0.00%
same,% assay/degs,[1]; pH 4.0,0.02%
same,% assay/degradation,"[2]; 0 h, 0.3 mg/mL",0.02 % w/w
same,% assay/degradation,"[2]; 30 mg (IV Bag), Ambient 8 h",0.02 % w/w
same,% assay/degradation,"[2]; 30 mg (IV Bag), Ambient 24 h",0.02 % w/w
same,% assay/degradation,"[2]; 30 mg (IV Bag), T = 0 (2-8° C. series)",0.02 % w/w
same,% assay/degradation,"[2]; 30 mg (IV Tube), Ambient 6 Hours",0.03 % w/w
same,% assay/degradation,"[2]; 200 mg (IV Bag), 2-8° C. 24 h",0.02 % w/w
same,% assay/degradation,"[2]; 200 mg (IV Bag), 2-8° C. 48 h",0.02 % w/w
same,% assay/degradation,"[2]; 200 mg (IV Bag), Ambient 8 h",0.02 % w/w
same,% assay/degradation,"[2]; 200 mg (IV Bag), Ambient 24 h",0.02 % w/w
same,% assay/degradation,"[2]; 200 mg (IV Bag), T = 0 (2-8° C. series)",0.02 % w/w
same,% assay/degradation,"[2]; 200 mg in 100 mL 0.9% Saline (IV Bag), T = 0 (Ambient series)",0.02 % w/w
same,% assay/degradation,"[2]; 4 h, 0.3 mg/mL",0.02 % w/w
same,% assay/degradation,"[2]; 4 h, 2 mg/mL",0.02 % w/w
same,% assay/degradation,"[2]; 6 h, 2 mg/mL",0.02 % w/w
same,% assay/degradation,"[2]; 24 h, 0.3 mg/mL",0.02 % w/w
same,% assay/degradation,"[2]; 48 h, 0.3 mg/mL",0.02 % w/w
same,AUC(0-t),[3],9.06 µM·h
same,Tmax,[4]; 0.168 mg/kg,1 h
same,Cmax,[4]; 0.536 mg/kg,71 ± 11 nM
same,Tmax,[4]; 0.536 mg/kg,2 h
same,concentration at 24 h,[5],302 ± 44 nM
same,Metabolite Concentrations,"[6]; Lower Lung Lobe, 0.168 mg/kg inhaled deposited dose, LOQ for A and C 0.154 nmol/g tissue",BLQ
same,Metabolite Concentrations,"[6]; Lower Lung Lobe, 0.536 mg/kg inhaled deposited dose, LLOQ for A and C 0.154 nmol/g tissue",BLQ
same,Metabolite Concentrations,"[6]; Upper Bronchi, 0.168 mg/kg inhaled deposited dose, LOQ for A and C 0.154 nmol/g tissue",BLQ
same,Metabolite Concentrations,"[6]; Upper Bronchi, 0.536 mg/kg inhaled deposited dose, LLOQ for A and C 0.154 nmol/g tissue",BLQ
same,Metabolite Concentrations,"[6]; Upper Trachea, 0.168 mg/kg inhaled deposited dose, LOQ for A and C 0.154 nmol/g tissue",BLQ
same,Metabolite Concentrations,"[6]; Upper Trachea, 0.536 mg/kg inhaled deposited dose, LLOQ for A and C 0.154 nmol/g tissue",BLQ
